Measurements taken from US7368126B2, “Controlled release depot formulations” (priority 2002, dated 2008).
Where a name gives a salt, the structure may show the parent alone.

Tests used:
[1] = Solubility in water; type: physicochemical; conditions: DI water
[2] = cited from earlier work

Structure (SMILES)	concentration in deionized water at saturation [1] [µg/mL]	reported solubility in water [2]
CCCCN1CCCCC1C(=O)Nc1c(C)cccc1C (centres unmarked) [Bupivacaine hydrochloride]	40000	–
CC(=O)OCC(COC(C)=O)OC(C)=O [triacetin]	–	7.17 grams in 100 ml of water
